One assay has as its target T1, Protein Tat (Human immunodeficiency virus type 1 group M subtype B (isolate HXB2)(HIV-1), UniProt P04608).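 Further: tat binding to TAR RNA read out by fluorescence polarization.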
T1 sequence (P04608 whole entry): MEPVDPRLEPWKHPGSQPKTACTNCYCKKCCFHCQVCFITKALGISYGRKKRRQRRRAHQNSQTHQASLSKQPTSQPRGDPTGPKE
In kind it is functional.

Assay [1] addresses T2, Adenosylmethionine-8-amino-7-oxononanoate aminotransferase (Mycobacterium tuberculosis, UniProt P9WQ81).
T2 sequence (P9WQ81 whole entry): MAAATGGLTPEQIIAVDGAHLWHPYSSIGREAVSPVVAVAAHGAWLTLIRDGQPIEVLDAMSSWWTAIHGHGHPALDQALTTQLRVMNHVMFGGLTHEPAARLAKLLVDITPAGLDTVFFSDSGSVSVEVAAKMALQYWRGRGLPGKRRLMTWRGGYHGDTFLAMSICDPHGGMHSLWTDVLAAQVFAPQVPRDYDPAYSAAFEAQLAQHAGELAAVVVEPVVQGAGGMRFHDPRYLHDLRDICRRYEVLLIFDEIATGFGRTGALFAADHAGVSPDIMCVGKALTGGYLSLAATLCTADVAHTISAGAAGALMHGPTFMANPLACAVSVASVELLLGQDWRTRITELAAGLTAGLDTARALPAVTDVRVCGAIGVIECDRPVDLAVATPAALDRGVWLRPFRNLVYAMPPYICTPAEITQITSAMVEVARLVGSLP
As to the kind of experiment: Mycobacterium tuberculosis BioA enzyme inhibitor Measured in Biochemical System Using Plate Reader - 2163-02_Inhibitor_Dose_CherryPick_Activity. In kind it is functional, Mycobacterium tuberculosis UT205.

The nature of assay [2]: NIH-3T3 fibroblast cytotoxicity, dose response, cytotoxicity control, cell-based, fluorescence, Alamar Blue, secondary assay (AID 2327).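 Further: NIH-3T3 mouse fibroblasts cultured with fluconazole at 8 µg/mL.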 In kind it is functional. (Resazurin is reduced to fluorescent resorufin, in cell work by metabolically active cells.)
Assay [3] concerns the target T3, Corticotropin-releasing factor receptor 2/Corticotropin-releasing factor-binding protein (Homo sapiens, UniProt P24387+Q13324).
T3 sequence (Q13324 whole entry): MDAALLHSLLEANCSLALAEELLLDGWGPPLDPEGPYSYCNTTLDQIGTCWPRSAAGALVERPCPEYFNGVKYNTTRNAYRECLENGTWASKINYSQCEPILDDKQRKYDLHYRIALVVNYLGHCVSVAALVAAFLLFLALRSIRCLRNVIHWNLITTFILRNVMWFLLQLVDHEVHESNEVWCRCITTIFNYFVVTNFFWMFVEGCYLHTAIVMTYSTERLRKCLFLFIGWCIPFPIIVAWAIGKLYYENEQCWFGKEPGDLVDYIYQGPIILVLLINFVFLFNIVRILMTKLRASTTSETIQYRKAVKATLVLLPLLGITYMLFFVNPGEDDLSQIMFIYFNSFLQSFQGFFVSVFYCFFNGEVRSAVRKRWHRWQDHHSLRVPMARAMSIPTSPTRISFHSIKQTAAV
T3 sequence (P24387 whole entry): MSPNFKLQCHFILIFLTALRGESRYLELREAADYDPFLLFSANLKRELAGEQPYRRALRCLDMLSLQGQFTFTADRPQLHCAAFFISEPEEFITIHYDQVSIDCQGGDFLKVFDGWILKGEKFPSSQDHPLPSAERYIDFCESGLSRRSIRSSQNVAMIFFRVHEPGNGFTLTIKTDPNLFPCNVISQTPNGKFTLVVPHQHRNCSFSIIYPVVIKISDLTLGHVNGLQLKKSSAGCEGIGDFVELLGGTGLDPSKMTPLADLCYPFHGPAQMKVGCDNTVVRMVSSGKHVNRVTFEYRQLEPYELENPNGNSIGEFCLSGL
As to the kind of experiment: activators of CRF receptor 2 with binding protein – uHTS hits, confirmation (AID 602473). Conditions: read-out: EC50_Mean. The class given is functional.

Assay [4] has as its target T3, Corticotropin-releasing factor receptor 2/Corticotropin-releasing factor-binding protein. As to the kind of experiment: Dose Response confirmation of uHTS hits for small molecule antagonists of the CRF-binding protein and CRF-R2 receptor complex. Conditions: read-out: IC50_Mean. In kind it is functional.
The nature of assay [5]: blockers of CRF-binding protein–CRF-R2 complex – cell-based, uHTS hits, 384-well, dose response (AID 651639). In kind it is functional, Homo sapiens. The settings on record: read-out: IC50_Mean.
Assay [6] concerns the target SWI/SNF-related matrix-associated actin-dependent regulator of chromatin subfamily A member 2 (Homo sapiens, UniProt P51531). Kind of assay: Luminescence-based cell-based high throughput dose response assay to identify activators of the function of SWI/SNF related, matrix associated, actin dependent regulator of chromatin, subfamily a, member 2 (SMARCA2, BRM). The class given is functional.

Assay [7] in a line: Counterscreen for activators of the function of SWI/SNF related, matrix associated, actin dependent regulator of chromatin, subfamily a, member 2 (SMARCA2, BRM): Luminescence-based cell-based high throughput dose response assay to identify non-selective compounds using the VP16 reporter assay. In kind it is functional. Background: Counterscreens check selectivity or assay interference.

Assay [8] addresses T4, Fructose-bisphosphate aldolase (Mycobacterium tuberculosis, UniProt P9WQA3).
T4 sequence (P9WQA3 whole entry): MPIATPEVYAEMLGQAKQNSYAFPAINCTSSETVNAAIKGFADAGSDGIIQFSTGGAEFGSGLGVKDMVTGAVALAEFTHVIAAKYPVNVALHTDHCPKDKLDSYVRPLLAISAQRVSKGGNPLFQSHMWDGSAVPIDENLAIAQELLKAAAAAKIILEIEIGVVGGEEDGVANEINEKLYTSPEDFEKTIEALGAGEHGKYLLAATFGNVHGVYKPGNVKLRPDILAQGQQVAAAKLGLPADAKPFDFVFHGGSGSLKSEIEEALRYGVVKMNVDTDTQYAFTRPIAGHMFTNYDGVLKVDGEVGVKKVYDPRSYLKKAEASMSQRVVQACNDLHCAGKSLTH
As to the kind of experiment: Fluorescence-based biochemical high throughput dose response assay for inhibitors of the fructose-bisphosphate aldolase (FBA) of M. tuberculosis. In kind it is functional.

Assay [9] can be described thus: non-specific 3'UTR reporter inhibition in Clone20-Shn3RL – cell-based, Renilla luciferase, cherry-picked, counter-screen for Shn3 inhibitor project, dose response (AID 624133). The class given is functional.
The nature of assay [10]: reduction of Shn3 3'UTR-driven luciferase in osteoblasts – cell-based, Clone20 osteoblasts, firefly luciferase, cherry-picked, dose response (AID 624132).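 Further: firefly luciferase luminescence from reporter carrying the Shn3 3'UTR in osteoblasts.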 In kind it is functional.
A further assay has as its target T5, Leucine aminopeptidase (Plasmodium falciparum 3D7, UniProt Q8IL11).
T5 sequence (Q8IL11 whole entry): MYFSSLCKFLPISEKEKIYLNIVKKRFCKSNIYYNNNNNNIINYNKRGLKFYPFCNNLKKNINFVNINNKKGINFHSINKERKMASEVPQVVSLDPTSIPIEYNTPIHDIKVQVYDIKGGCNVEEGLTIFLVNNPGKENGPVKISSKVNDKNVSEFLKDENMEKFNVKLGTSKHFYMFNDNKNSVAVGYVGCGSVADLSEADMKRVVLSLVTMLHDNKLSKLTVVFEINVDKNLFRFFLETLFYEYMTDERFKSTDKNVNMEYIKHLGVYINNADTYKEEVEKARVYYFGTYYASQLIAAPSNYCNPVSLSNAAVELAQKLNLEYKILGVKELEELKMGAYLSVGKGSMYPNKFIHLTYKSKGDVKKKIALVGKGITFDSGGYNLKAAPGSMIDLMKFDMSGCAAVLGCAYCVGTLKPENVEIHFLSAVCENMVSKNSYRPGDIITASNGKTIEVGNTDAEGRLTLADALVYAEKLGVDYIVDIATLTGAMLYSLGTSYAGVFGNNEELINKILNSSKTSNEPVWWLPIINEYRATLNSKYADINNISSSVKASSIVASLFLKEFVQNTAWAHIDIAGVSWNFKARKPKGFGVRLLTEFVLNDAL
Kind of assay: P. falciparum M17LAP inhibitors, primary screen, biochemical, fluorogenic H-Leu-NHMec substrate, 1536-well (AID 1619). In kind it is functional.

Assay [11] has as its target Dual specificity tyrosine-phosphorylation-regulated kinase 1A (Rattus norvegicus, UniProt Q63470). In kind it is biochemical, Homo sapiens.
The target of assay [12] is T6, Rac GTPase-activating protein 1 (Homo sapiens, UniProt Q9H0H5).
T6 sequence (Q9H0H5 whole entry): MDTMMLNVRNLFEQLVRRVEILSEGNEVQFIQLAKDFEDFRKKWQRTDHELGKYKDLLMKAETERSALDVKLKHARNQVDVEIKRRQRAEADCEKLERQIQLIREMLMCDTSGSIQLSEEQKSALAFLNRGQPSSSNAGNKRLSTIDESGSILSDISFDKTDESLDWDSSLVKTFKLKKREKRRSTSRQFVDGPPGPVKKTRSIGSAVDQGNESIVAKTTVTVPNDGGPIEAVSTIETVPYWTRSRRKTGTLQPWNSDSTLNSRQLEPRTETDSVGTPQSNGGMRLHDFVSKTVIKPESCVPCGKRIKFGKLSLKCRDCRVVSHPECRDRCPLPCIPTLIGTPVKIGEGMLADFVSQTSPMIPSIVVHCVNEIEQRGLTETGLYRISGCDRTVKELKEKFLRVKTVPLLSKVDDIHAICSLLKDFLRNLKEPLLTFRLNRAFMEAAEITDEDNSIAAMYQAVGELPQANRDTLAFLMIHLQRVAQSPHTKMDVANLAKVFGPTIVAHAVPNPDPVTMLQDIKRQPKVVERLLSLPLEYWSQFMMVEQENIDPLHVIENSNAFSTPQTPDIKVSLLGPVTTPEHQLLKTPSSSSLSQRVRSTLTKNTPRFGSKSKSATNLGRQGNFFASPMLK
Kind of assay: blockers of MgcRacGAP-driven Rac1 GTP hydrolysis – biochemical, ADP Hunter fluorescence, primary and confirmatory, confirmation (AID 624330). In kind it is functional.

Assay [13] concerns the target T7, Small ubiquitin-related modifier 1 (Homo sapiens, UniProt P63165). Kind of assay: SUMO1 protein-protein binding blockers, potency – biochemical, FRET, dose response (AID 624383). The class given is functional. The settings on record: read-out: IC50_Mean.
Assay [14] concerns the target T8, Carboxy-terminal domain RNA polymerase II polypeptide A small phosphatase 1 (Homo sapiens, UniProt Q9GZU7).
T8 sequence (Q9GZU7 whole entry): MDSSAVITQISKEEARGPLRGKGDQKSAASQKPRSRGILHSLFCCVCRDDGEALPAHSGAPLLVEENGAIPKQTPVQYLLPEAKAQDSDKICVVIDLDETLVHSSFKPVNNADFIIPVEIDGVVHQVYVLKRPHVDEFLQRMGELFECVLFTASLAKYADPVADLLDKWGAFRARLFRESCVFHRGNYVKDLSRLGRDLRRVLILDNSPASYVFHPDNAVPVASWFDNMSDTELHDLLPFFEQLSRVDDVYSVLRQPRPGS
Kind of assay: CTDSP1 inhibitors, concentration-response, biochemical, absorbance readout, ultra-high-throughput screen actives (AID 540297). In kind it is functional.

The target in assay [15] is T7, Small ubiquitin-related modifier 1. As to the kind of experiment: SUMO1 protein interaction blockers, potency – biochemical, fluorescence polarization, uHTS hits, dose response (AID 624382). In kind it is functional. The settings on record: read-out: IC50_Mean. On the technique in general: In fluorescence polarisation assays a small probe gives low polarisation when free and higher when bound to something large.

Each structure is given as a SMILES string. Active and inactive are the calls of the source.

As usually defined, the AC50 is the concentration at which the activity in the assay is half-maximal.

Sequence of SWI/SNF-related matrix-associated actin-dependent regulator of chromatin subfamily A member 2 (P51531 whole entry): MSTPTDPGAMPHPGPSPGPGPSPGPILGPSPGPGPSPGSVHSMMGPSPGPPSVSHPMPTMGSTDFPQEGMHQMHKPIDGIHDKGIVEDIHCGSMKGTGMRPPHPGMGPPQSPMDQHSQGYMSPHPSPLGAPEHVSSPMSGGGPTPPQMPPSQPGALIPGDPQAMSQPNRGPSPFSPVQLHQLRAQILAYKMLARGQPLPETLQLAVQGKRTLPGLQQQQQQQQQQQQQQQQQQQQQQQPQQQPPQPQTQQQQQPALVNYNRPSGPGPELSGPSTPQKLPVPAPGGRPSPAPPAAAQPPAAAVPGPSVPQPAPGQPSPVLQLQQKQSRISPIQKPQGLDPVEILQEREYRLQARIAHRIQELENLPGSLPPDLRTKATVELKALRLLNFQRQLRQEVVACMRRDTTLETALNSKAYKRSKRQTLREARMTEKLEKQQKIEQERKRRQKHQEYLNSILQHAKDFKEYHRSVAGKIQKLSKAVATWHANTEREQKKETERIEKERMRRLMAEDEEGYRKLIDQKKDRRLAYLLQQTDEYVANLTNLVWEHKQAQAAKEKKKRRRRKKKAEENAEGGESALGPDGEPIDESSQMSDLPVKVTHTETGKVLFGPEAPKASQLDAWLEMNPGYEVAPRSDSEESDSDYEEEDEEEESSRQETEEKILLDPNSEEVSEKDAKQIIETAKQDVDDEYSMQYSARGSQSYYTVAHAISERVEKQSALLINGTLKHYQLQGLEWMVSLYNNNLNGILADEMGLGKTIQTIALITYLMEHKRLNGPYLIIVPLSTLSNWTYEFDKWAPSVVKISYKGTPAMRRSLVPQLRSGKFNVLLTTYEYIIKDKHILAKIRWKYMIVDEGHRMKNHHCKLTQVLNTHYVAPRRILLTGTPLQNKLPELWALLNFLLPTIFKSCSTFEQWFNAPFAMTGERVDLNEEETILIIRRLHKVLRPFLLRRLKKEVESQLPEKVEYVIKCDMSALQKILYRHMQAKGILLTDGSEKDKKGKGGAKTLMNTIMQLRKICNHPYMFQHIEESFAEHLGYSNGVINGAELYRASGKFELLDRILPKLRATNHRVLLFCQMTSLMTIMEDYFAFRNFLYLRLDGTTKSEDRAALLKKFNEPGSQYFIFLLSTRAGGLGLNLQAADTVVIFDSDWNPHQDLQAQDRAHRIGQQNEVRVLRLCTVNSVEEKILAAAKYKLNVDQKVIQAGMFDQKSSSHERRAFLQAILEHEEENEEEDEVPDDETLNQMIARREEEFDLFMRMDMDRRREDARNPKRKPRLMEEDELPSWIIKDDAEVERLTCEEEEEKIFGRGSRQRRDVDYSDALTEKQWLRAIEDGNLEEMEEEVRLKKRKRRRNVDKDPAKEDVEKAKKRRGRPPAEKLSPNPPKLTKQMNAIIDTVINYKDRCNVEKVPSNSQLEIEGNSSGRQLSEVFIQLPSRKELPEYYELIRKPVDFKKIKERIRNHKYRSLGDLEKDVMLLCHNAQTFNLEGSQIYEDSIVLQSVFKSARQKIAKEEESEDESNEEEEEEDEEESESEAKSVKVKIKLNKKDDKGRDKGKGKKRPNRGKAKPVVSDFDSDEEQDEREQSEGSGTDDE
T7 sequence (P63165 whole entry, the tested form may be a part): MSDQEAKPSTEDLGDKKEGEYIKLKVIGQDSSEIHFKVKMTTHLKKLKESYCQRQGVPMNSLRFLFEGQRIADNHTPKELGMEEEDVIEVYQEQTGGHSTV

For `COCCNC(=O)c1ccc(CS(=O)(=O)c2c(Cl)cccc2Cl)o1`, the IC50 on Protein Tat is > 100 µM (active).

Turning to `Cc1c(C(N)=O)sc(N)c1C(=O)OC(C)C`, in assay [1], the AC50 is 3.06 µM (active).

Consider `CC(=O)c1ccc(NC(=O)C2CC(=O)N(Cc3ccccc3)C2)cc1` (stereo not drawn), for which the half-maximal activity concentration (AC50) in assay [1] was 5.19 µM (active).

Turning to `O=C(O)c1cnc(-c2ccccc2)nc1Sc1ccc(Cl)cc1`, the results for the EC50 in assay [2] and in assay [3] were 98.3 µM (inconclusive) and > 53 µM (inactive), respectively. Moreover, the figures for the IC50 in assay [4] and in assay [5] were 16.8 µM (active) and > 20 µM (inactive), respectively.

On to `CCN(CC)C(=O)CSc1nnc(-c2cccc(OC)c2)o1`, for which the EC50 in [6] and in [7] was > 91.1 µM (inactive) in each case.

In the case of `Cc1cc(C)nc(SCc2nc3ncccn3c2Br)n1`, in [8], the IC50 is 1.47 µM (active).

With `CS(=O)(=O)c1ccc(C(=O)OCC(=O)N2CCOCC2)cc1[N+](=O)[O-]`, the concentration at half-maximal activity (AC50) in assay [9] was 27.9 µM (active); in assay [10], 17.5 µM (active). The EC50 in assay [6] and in assay [7] was > 91.2 µM (inactive) throughout.

With `COc1cccc(CNC(=O)c2ccc(NC(=O)C3=CSCCO3)cc2)c1`, the AC50 in assay [1] is 3.61 µM (active).

Consider `O=C(c1ccc(=O)oc1)N1CCCc2ccccc21`, for which, at Protein Tat, the IC50 is 5.02 µM (inconclusive).

Turning to `O=C(O)COc1ccc(/C=C/c2ccc3cccc([N+](=O)[O-])c3n2)cc1`, at Leucine aminopeptidase, the IC50 was 23.2 µM (active). Moreover, the AC50 in assay [11] was 6.6 µM (active).

Take `COc1ccc(C(=O)NC(Oc2ccccc2)C(Cl)(Cl)Cl)cc1` (stereo not drawn): the EC50 in assay [3] is > 53 µM (inactive). For the same compound, the figures for the IC50 in assay [4] and in assay [5] were 5.81 µM (active) and 14.5 µM (active), respectively.

Turning to `O=C(Nc1ccc(O)cc1)c1cccc(Oc2ccc([N+](=O)[O-])cc2)c1`, the EC50 in assay [3] is > 53 µM (inactive). Besides, the IC50 in assay [12] was 41.8 µM (active); in [4], 25.9 µM (active); in [5], > 20 µM (inactive).

Consider `CC(=O)c1ccc(NC(=O)c2cccc(N3C(=O)c4ccccc4C3=O)c2)cc1`, for which the IC50 is 3.13 µM (active) in assay [13], 9.44 µM (active) in [14] and > 66.6 µM (inactive) in assay [15].

In the case of `N=c1c(C(=O)NC2CCCCC2)cc2c(=O)n3ccccc3nc2n1Cc1ccco1`, the IC50 in [8] was 3.71 µM (active).

Regarding `CC(=O)c1ccc(-c2cnc3c(NC=O)cc(-c4ccc(N5CCN(C)CC5)cc4)cn23)cc1`, the figures for the EC50 in assay [6] and in assay [7] were 56 µM (inactive) and > 91.2 µM (inactive), respectively.

Take `C/C=C/c1ccc2c(c1)O[C@@H](CN(C)C(=O)c1ccc3c(c1)OCO3)[C@@H](C)CN([C@@H](C)CO)S2(=O)=O`: in [1], the AC50 was 5.33 µM (active).

For `CC1(C(=O)Nc2ccccc2)Cc2c(-c3ccc4c(c3)OCO4)ccnc2O1` (stereo not drawn), the IC50 in [8] was 2.52 µM (active).
